US10166237B2, “Compounds and methods for inducing chondrogenesis” (The Scripps Research Institute, priority 2011, dated 2019)
Where two headings read alike, the source gives them in different places.

How the values were obtained:
[1] = tested on: human mesenchymal stem cells (hMSCs); test: chondrogenic nodule formation by hMSCs (high throughput screen); type: cell-based
How it was run: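 Primary hMSCs (10^4/well) in serum-free DMEM exposed to compounds at 5 μM for 4 days. Chondrogenic nodules stained with Nile red (binds collagens) and counted by high-content imaging with 488 laser excitation. In 96-well follow-up, 50,000 cells/well treated 4 days, formalin-fixed, stained with 1 μg/ml Rhodamine B.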

chondrocytes = test: toxicity in chondrocytes; type: cell-based; conditions: 100 μM
C57BL/10 mice = test: collagenase VII-induced knee joint damage; type: in vivo; conditions: 10 μM intra-articular on days 7 and 21
Protocol: IA injections of C57BL/10 mice with collagenase VII (12 U/knee) induced joint damage through digestion of the ligament of the knee. The mice were dosed intra-articularly on days 7 and 21 with 10 μM PRO1 or PBS. On day 56 the mice were euthanized for histopathological analyses. Parafin blocks were sectioned at 5 um and stained with Safranin O, and representative data was collected for the PBS- and PRO1-treated mice (FIG. 3A). The total medial tibial plateau joint score was determined by two blinded observers and averaged to represent the data shown here using the OARSI scoring system (FIG. 3B). Peripheral blood was collected from each mouse by retro-orbital bleeding on day 1, day 13 and day 56. The circulating COMP was determined by the Animal COMP ELISA kit according to the manufacturer's instructions (MDBioproducts, St Paul, Minn.). Pooled data, 10 mice/group (FIG. 3C).

hMSCs = test: type II collagen expression in hMSC cultures (18 day assay); type: cell-based, human
Protocol: The chondrogenic differentiation event was initiated quickly even though a fully differentiated chondrocyte phenotype cannot be assessed prior to 14 days in culture. In an 18 day assay, compound treatment was only required for the first 48 hrs and followed by removal and replacement of the media (in the absence of stimuli, FIG. 2B). The promotion of chondrogenic differentiation was not altered or enhanced upon longer treatment with the stimuli (data not shown).
Primary hMSCs were plated (10,000/well) in 384-well plates and cultured for 18 days. The cells were fixed with 4% formalin, permeabilized with triton (0.5%), digested with 0.5 mg/ml collagenase II to unwind the collagen fibrils, and then immunostained with an antibody recognizing type II collagen. DAPI (2 μg/ml) was added to visualize the nuclei. The chondrogenic nodules stained positive for type II collagen but lacked expression of type X collagen and osteocalcin, markers for chondrocyte hypertrophy and osteoblasts, respectively (not shown). 10,000 hMSCs (passages 3-5) were plated in Greiner 384-well low-bottom plates on day 1. The cells were allowed to adhere and stimulated for 48 hrs (days 2-3) with the indicated stimuli in MSC growth media (Millipore). The media was then removed and replaced with serum-free DMEM for an additional 16 days. This media was replenished on days 10 and 15 of the assay. Primary bovine chondrocytes were isolated from the articular surfaces from mature knees. After one week of culture, 8,500 cells were trypsinized and plated in Greiner 384-well white clear-bottom plates in growth media. […] 20 μl of the supernatant was mixed with 20 μl of the Greiss reagent and quantitated at 540 nm as described by the Promega kit instructions. Bovine cartilage explants (cut in circular explants in a 96 well plate) were cultured in the presence of 20 ng/ml TNFα and 10 ng/ml oncostatin M to induce GAG release for 72 hours (FIG. 2D). PRO1 was added at the indicated concentrations during the entire 72 hrs. […] Parafin sections were hydrated, incubated in low pH Antigen unmasking solution (Vector) at 90 C for 10 minutes, permeabilized with 0.1% collagenase II (only for the sections stained with type II collagen) for 10 minutes, blocked with CAS block for 10 minutes and then incubated with the primary antibody (type II collagen, aggrecan or Timp1) antibody (Abcam) overnight at 4 C. The antigens were visualized through standard ABC detection methods and developed with DAB. Representative of 3 sections stained/treatment group (independent experiments).

[2] = in vivo, 0.05 mg/kg
human chondrocytes = test: proliferation of human chondrocytes; type: cell-based
FLNA = target: T1, FLNA (Homo sapiens, UniProt P21333); test: photo-crosslinking of biotin-PRO1-azide in hMSCs, competition with PRO1, proteomics; type: binding
T1 construct: endogenous in cells; host or cells: hMSCs (primary human mesenchymal stem cells)
Protocol: To identify the interaction of PRO1 and FLNA, 5 μM biotin-PRO1-azide was added to hMSCs in the differentiation media in the absence or presence of a 50-fold molar excess of PRO1 and incubated for 30 min. 254-nm light was applied to the cells for another 30 min. Cells were lysed in lysis buffer (20 mM Tris-HCl, pH=7.4, 150 mM NaCl, 1 mM EDTA, 1 mM DTT, 0.5% v/v Triton X-100, protease inhibitor cocktail), passed through 26 1/2 gauge needles 20 times, and centrifuged at 12,000 rpm for 30 min. The supernatant was subjected to ammonium sulfate precipitation fractionation. Fractions were analyzed by Western blotting using an anti-biotin antibody (FIG. 6A). Fractions containing 20-40% ammonium sulfate were precipitated using trichloroacetic acid (TCA) and resuspended in isoelectric focusing sample buffer and subjected to 2D SDS-PAGE and Western blotting against biotin. Proteins specifically labeled by biotin-PRO1-azide were recognized, and the corresponding spots on a parallel gel visualized by silver staining were excised. These proteins were identified by mass spectrometry proteomics analysis. hMSCs were treated in monolayer or pellet culture (as indicated in FIG. 6B-6C) for 24-72 hrs. 15 μg of protein was separated by SDS-PAGE and hMSCs were fractionated (as indicated in FIG. 6B-6C) into cytosolic and nuclear fractions or monomeric and filamentous components as previously described.

FLNA/PEBP2β = target: T2, FLNA/PEBP2β (Homo sapiens, UniProt P21333); test: immunoprecipitation and Western blotting of FLNA/PEBP2β interaction in hMSCs; type: cell-based; conditions: 12 hr treatment
T2 construct: endogenous in cells; host or cells: hMSCs (primary human mesenchymal stem cells)
T2 sequence (P21333 2-2647 limits assumed): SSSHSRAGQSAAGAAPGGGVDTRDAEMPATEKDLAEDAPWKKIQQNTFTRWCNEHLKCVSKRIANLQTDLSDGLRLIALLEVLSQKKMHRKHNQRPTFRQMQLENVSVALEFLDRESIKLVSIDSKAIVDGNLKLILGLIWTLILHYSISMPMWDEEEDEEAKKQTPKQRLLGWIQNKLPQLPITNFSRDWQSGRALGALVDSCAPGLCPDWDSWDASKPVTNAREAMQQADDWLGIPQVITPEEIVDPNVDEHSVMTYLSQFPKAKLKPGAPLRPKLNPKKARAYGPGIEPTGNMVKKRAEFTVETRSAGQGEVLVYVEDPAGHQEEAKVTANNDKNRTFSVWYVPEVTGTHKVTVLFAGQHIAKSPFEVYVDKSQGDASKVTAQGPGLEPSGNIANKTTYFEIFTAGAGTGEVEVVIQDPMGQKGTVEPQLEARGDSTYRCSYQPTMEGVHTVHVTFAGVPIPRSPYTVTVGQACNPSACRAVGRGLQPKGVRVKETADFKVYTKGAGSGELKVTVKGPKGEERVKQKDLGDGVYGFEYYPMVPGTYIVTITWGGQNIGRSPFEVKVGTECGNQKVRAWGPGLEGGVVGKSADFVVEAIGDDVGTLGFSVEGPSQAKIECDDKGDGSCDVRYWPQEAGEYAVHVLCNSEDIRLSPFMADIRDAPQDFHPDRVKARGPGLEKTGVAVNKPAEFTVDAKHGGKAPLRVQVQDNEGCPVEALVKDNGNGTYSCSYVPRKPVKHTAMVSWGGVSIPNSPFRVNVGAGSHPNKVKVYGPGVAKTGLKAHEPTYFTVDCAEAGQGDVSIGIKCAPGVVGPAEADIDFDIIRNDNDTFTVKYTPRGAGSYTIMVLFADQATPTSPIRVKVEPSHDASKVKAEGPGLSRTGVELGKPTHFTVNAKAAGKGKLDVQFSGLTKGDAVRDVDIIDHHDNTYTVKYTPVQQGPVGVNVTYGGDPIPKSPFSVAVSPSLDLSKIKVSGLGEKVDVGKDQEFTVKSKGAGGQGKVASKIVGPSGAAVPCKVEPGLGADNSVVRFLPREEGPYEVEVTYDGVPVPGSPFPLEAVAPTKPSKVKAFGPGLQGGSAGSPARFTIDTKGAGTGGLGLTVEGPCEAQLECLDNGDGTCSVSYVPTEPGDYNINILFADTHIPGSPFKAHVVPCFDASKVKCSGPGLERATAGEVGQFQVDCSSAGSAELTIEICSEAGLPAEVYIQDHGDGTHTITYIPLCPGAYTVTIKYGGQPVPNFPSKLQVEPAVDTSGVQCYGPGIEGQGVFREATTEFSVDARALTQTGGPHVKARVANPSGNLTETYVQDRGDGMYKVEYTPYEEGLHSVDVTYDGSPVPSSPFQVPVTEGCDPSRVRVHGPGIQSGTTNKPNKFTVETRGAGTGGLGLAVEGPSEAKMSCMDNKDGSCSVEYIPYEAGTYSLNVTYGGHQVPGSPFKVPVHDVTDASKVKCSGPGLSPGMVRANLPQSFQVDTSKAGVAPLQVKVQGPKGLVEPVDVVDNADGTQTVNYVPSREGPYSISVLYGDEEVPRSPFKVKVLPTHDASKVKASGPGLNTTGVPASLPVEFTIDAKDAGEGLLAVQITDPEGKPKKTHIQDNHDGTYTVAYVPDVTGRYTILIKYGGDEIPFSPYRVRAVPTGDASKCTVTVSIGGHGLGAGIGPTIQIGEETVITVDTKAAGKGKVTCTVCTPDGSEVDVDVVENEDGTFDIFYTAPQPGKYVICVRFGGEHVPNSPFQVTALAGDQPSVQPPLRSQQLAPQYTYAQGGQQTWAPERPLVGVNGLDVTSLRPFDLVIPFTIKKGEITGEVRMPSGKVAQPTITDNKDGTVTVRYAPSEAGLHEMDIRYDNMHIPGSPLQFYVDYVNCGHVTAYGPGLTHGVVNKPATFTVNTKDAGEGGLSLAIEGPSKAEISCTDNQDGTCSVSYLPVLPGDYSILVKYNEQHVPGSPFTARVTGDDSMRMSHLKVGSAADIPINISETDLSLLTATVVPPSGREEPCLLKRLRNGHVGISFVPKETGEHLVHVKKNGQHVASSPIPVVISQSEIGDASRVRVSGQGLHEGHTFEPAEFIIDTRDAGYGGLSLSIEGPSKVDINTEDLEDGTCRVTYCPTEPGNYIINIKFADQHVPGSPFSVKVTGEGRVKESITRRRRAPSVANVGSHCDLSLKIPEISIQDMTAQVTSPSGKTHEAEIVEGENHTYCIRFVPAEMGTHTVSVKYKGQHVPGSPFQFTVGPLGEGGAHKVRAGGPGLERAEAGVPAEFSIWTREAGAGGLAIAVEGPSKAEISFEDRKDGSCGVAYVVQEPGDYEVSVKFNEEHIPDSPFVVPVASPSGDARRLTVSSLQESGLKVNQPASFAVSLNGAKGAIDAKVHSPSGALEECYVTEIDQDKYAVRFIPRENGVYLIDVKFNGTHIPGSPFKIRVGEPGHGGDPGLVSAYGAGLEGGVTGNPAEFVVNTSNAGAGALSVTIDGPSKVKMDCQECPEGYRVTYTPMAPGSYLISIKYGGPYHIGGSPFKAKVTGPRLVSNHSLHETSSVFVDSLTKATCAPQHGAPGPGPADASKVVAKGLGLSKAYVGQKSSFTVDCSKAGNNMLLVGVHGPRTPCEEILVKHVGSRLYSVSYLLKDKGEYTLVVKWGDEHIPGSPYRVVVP
Protocol: hMSCs were treated with […] for 12 hr and lysed as above. 2 μg of anti-PEBP23 antibody was added to the cell lysate and incubated overnight at 4° C. prior to addition of agarose beads bearing immobilized protein A/G. After incubation of the lysate with the protein A/G beads for 1 hour, the beads were collected by centrifugation at 2,000 rpm and washed 3 times with lysis buffer. 30 μL of 2×SDS sample buffer was added to the beads and boiled for 5 min.

O=C(O)c1ccccc1C(=O)Nc1ccc(-c2ccccc2)cc1 [AKT]
cartilage nodule formation ([1]; 100 nM, 4 days, Rhodamine B stain): Rapid Phenotypic Cartilage Nodule Formation | EC50 ([1]; Homo sapiens, Mesenchymal stem cells, 96 h, primary screen, Nile red stained nodules, 4 days, read-out: EC50): 0.1 µM | EC50 ([1]; first value of the cell (before the slash), read-out: CHONDROGENIC μM EC50): 0.225 µM | toxicity (chondrocytes): No toxicity | circulating COMP levels (C57BL/10 mice; ELISA): Reduced | cartilage damage (C57BL/10 mice; day 56): Reduced Cartilage Damage | EC50 (hMSCs): 0.08 µM | induction of chondrogenic differentiation of hMSCs (hMSCs; compared with known inducers TGFβ3, BMP7 or BMP2, FIG. 2B): more potent and efficient | Plasma Conc. [2]: BLQ | proliferative advantage (human chondrocytes): < 1.5 fold | interaction with FLNA (FLNA): Interacts with FLNA | protein interactions between FLNA and PEBP2β (FLNA/PEBP2β): Inhibits the Protein Interactions
